Data set [1] deals with Plasmodium falciparum. Description: Antiplasmodial activity against chloroquine sensitive Plasmodium falciparum GC03 infected in human erythrocyte assessed as inhibition of parasite growth incubated for 48 hrs by SYBR Green dye based fluorescence assay. The data set is classed as functional, organism-based.
Data set [2] can be described thus: Retention time of the compound by HPLC-MS analysis. The data set is classed as physicochemical.
Data set [3] deals with Plasmodium falciparum. The data set is described as follows: Antiplasmodial activity against Plasmodium falciparum K1 infected in human erythrocyte assessed as inhibition of parasite growth incubated for 72 hrs by [3H]-hypoxanthine incorporation based liquid scintillation counting method. The data set is classed as functional, organism-based.
Data set [4] concerns Plasmodium falciparum. Description: Antiplasmodial activity against chloroquine resistant Plasmodium falciparum RKL9 infected in human erythrocyte assessed as inhibition of parasite growth incubated for 24 hrs by three fold serial dilution assay. The format is functional.
Data set [5] relates to Plasmodium berghei. The data set is described as follows: Antimalarial activity against Plasmodium berghei ANKA infected in Swiss albino mouse assessed as reduction in parasitemia at 50 micromol/kg,po administrated for 4 days by Giemsa staining based microscopic analysis. The conditions noted are these: dose 50 µmol/kg, time 4 day. Further details: scale not given: the % may be the effect or the level left. The data set is classed as functional.

For data set [6], the system named is Plasmodium falciparum. Description: Antiplasmodial activity against chloroquine sensitive Plasmodium falciparum 3D7 assessed as inhibition of parasite growth incubated for 48 hrs by Malstat reagent based spectrophotometric. The data set is classed as functional, organism-based. The conditions noted are these: 3D7, 48 h.
In data set [7] the test system is Plasmodium falciparum. Description: Antimalarial activity against Plasmodium falciparum 3D7 assessed as reduction of parasite growth at 25 uM incubated for 96 hrs by SYBR green I dye based fluorescence assay relative to control. The format is functional. Further details: scale not given: the % may be the effect or the level left.
For data set [8], the system named is Plasmodium falciparum. The data set is described as follows: Antiplasmodial activity against chloroquine resistant Plasmodium falciparum K14 assessed as inhibition of parasite growth incubated for 48 hrs by [3H]-hypoxanthine incorporation based microbeta scintillation counting method. The data set is classed as functional, organism-based.
Data set [9] deals with Plasmodium falciparum. Description: Antiplasmodial activity against chloroquine resistant Plasmodium falciparum RKL-2 assessed as inhibition of parasite growth incubated for 36 to 40 hrs by Giemsa staining based microscopic analysis. The data set is classed as functional, organism-based.
Data set [10] concerns Plasmodium falciparum. Description: Antiplasmodial activity against chloroquine resistant Plasmodium falciparum K14 assessed as inhibition of parasite growth incubated for 42 hrs by [3H]-hypoxanthine incorporation based microbeta scintillation counting method. The data set is classed as functional, organism-based.
The subject of data set [11] is Plasmodium falciparum. The data set is described as follows: Antimalarial activity against Plasmodium falciparum 3D7 assessed as inhibition of parasite growth by measuring minimum inhibitory concentration by microassay. The data set is classed as functional.
In data set [12] the test system is Plasmodium falciparum. The data set is described as follows: Antimalarial activity against Plasmodium falciparum 3D7 assessed as reduction of parasite growth incubated for 96 hrs by SYBR green I dye based fluorescence assay. The format is functional, organism-based. To be noted: 3D7, 96 h.
For data set [13], the system named is Plasmodium falciparum. Description: Antiplasmodial activity against erythrocytic stage of Plasmodium falciparum NF54 assessed as reduction of parasite growth incubated for 48 hrs by [3H]-hypoxanthine incorporation based beta-plate liquid scintillation counting method. The data set is classed as functional, organism-based.
Data set [14] relates to Plasmodium falciparum. The data set is described as follows: Antiplasmodial activity against erythrocytic stage of Plasmodium falciparum K1 assessed as reduction of parasite growth incubated for 48 hrs by [3H]-hypoxanthine incorporation based beta-plate liquid scintillation counting method. The format is functional, organism-based.
Data set [15] is described as follows: Selectivity index, ratio of CC50 for cytotoxicity against human HepG2 cells by MTT assay to EC50 for antiplasmodial activity against erythrocytic stage of Plasmodium falciparum K1 by [3H]-hypoxanthine incorporation based liquid scintillation counting method. The format is toxicity, cell-based. To be noted: read-out: Ratio CC50/EC50. On the technique in general: Formazan colour is commonly taken as a measure of viable cells.

A short description of data set [16]: Selectivity index, ratio of CC50 for cytotoxicity against human HepG2 cells by MTT assay to EC50 for antiplasmodial activity against erythrocytic stage of Plasmodium falciparum NF54 by [3H]-hypoxanthine incorporation based liquid scintillation counting method. The format is toxicity, cell-based. To be noted: read-out: Ratio CC50/EC50.
The nature of data set [17]: Cytotoxicity against human HepG2 cells assessed as reduction in cell viability incubated for 72 hrs by MTT assay. The format is toxicity, cell-based.
Data set [18] has as its system Plasmodium falciparum. The data set is described as follows: Antiplasmodial activity against erythrocytic stage of Plasmodium falciparum 3D7 assessed as reduction of parasite growth incubated for 100 hrs by SYBR Green dye based fluorescence assay. The format is functional, organism-based. The conditions noted are these: 3D7, 100 h.

Each structure is given as a SMILES string. In brackets after ≈: the same amount, converted by molar mass.

For orientation: IC50 means the concentration needed to halve the response being measured. Regarding `N=C(N)c1ccc(-c2cn(-c3ccc(C(=N)N)cc3)nn2)cc1`, the IC50 in [1] worked out at 0.087 µM. `N=C(N)c1ccc(-n2cc(-c3cccc(C(=N)N)c3)nn2)cc1`: the concentration for half-maximal inhibition (IC50) in [1] came to 0.44 µM. In the case of `N=C(N)c1ccc(-c2cn(-c3cccc(C(=N)N)c3)nn2)cc1`, the IC50 in data set [1] was found to be 0.276 µM. Compound `C=C(C)[C@H](O)[C@@H](O)C[C@@H](C)C1=C2C[C@H](O)[C@H]3[C@@]4(C)CCC(=O)C(C)(C)[C@@H]4CC[C@]3(C)[C@@]2(C)CC1` had a Retention_time in data set [2] of 23 min. Also, the IC50 in data set [3] was 6.98 µM.

`O=C(N/N=C/C=C/c1ccccc1)c1ccncc1`: the “inhibition (INH)” value in data set [4] is on record as 80%. Same read-out and setting: in the case of `O=C(N/N=C/c1ccc(O)cc1)c1ccncc1` it was 90%; in that of `COc1ccc(/C=N/NC(=O)c2ccncc2)cc1O`, 91%. As for `Cc1ccc(-n2cc(C=O)c(-c3ccccc3)n2)cc1`, the Activity in data set [5] amounted to 85%.

In the case of `Cc1ccc(-n2cc(C(=O)O)c(-c3ccccc3)n2)cc1`, the Activity in data set [5] was 95%. With `O=Cc1cn(-c2ccc(Cl)cc2)nc1-c1ccccc1`, the Activity in data set [5] stood at 83%. With `CC(=O)Nc1cc(/C=C/c2ccc(F)cc2)cc2cc(-c3ccc(F)cc3)[nH]c12`, in data set [6], the 50% inhibitory concentration (IC50) is 2.14 µM. `COC(=O)[C@H](Cc1ccc(O)c(-c2ccc3ccccc3c2)c1)NC(=O)C(=O)c1c[nH]c2ccccc12`: the Activity in [7] was 60%.

Turning to `COc1ccc(N2C(=O)[C@@H](Oc3ccc(Cl)cc3Cl)[C@H]2c2ccc(NC(=O)N3CCOCC3)cc2)cc1`, the half-inhibitory concentration (IC50) in [8] came to 21 µM.

`CCN(Cc1cc(C2(C)OOC(c3ccncc3)OO2)ccc1O)c1ccccc1` (configuration not stated): in data set [9], the IC50 amounted to 5.3 µg/mL (≈ 13 µM). With `COC(=O)[C@H](Cc1ccc(O)c(-c2ccc(C(F)(F)F)cc2)c1)NC(=O)C(=O)c1c[nH]c2ccccc12`, the Activity in data set [7] worked out at 60%. Same read-out and setting: in the case of `COC(=O)[C@H](Cc1ccc(O)c(I)c1)NC(=O)C(=O)c1c[nH]c2ccccc12` it was 20%. Take `CCN(Cc1cc(C2(C)OOC(c3ccccc3)OO2)ccc1O)c1ccccc1` (configuration not stated): in [9], the IC50 turned out to be 5.3 µg/mL (≈ 13 µM).

In the case of `CCN(Cc1cc(C2(C)OOC(c3cccs3)OO2)ccc1O)c1ccccc1` (configuration not stated), the IC50 in [9] was found to be 5.3 µg/mL (≈ 12.8 µM). In the case of `CCN(CC)c1ccc(/N=C/c2cccc(CN3CCOCC3)c2O)cc1`, in data set [10], the half-maximal inhibitory concentration (IC50) came out at 2.28 µM.

The term MIC denotes the smallest concentration in the dilution series that meets the test's criterion for growth inhibition. `Cc1ccc(C2=C/C(=C/c3cc4cc(C)ccc4nc3Cl)C(=O)O2)cc1`: the MIC in data set [11] turned out to be 50 µg/mL (≈ 138 µM). The EC50 is the concentration giving half of the maximal effect. As for `COC(=O)[C@H](Cc1ccc(O)c(-c2ccc(F)cc2)c1)NC(=O)C(=O)c1c[nH]c2ccccc12`, in data set [12], the EC50 was 1.3 µM. For the same compound, the Activity in [7] was determined as 60%. By CC50 is commonly meant the concentration at which the toxic effect on the cells reaches its halfway point. Take `CC1(C)C2CC=C(CC(=O)Oc3ccnc4cc(Cl)ccc34)[C@@H]1C2`: the EC50 in data set [13] is 23.3 µM; in data set [14] it was 0.164 µM; in [18], more than 50 µM. Also, the selectivity ratio in [15] is more than 976; in data set [16], 0.7. In [17], the CC50 at 72 h was more than 160 µM. Consider `Oc1ccccc1/N=C/c1cccc(CN2CCOCC2)c1O`, for which the IC50 in data set [10] was 2.28 µM.

`COC(=O)[C@H](Cc1ccc(O)c(-c2ccc(C(C)(C)C)cc2)c1)NC(=O)C(=O)c1c[nH]c2ccccc12`: the Activity in [7] was determined as 60%. Regarding `Oc1ccc(/N=C/c2cccc(CN3CCOCC3)c2O)cc1`, in data set [10], the 50% inhibitory concentration (IC50) turned out to be 2.28 µM.

For the origin of these results see ChEMBL document CHEMBL5352391, “New structural classes of antimalarials” (Eur J Med Chem, 2022).
